Data taken from patent US10682371B2, “Small molecule conjugates specifically activated in tumor microenvironment for targeting and use thereof” (priority 2014, dated 2020).

Key:
D121 lung tumor cells = format: in vivo, C57 mice; details: D121 immunized C57 mice, 13.2 μmol/kg weekly; PDL1 antibody 5 μg/kg where combined; Day 18
Method: 1) D121 lung tumor cells were purchased from ATCC. Cells were cultivated in DMEM culture solution containing 10% fetal bovine serum at 37° C. and 5% CO2. The cells were passaged for every three days and cells within the 15th passage were used.
(§1) 2) Tumor immunization. 5×10^5 D121 lung cancer cells (purchased from ATCC) which were killed by irradiation were intraperitoneally injected to mice. The mice were injected for 3 times, once every two weeks. After immunization, mice were injected with tumor cells and the drugs were administered weekly for 4 weeks.
3) Production of tumor. At day 32, 10^6 live lung tumor cells were subcutaneously injected to the back of the C57 mice immunized by tumor. Treatment began when the tumor grew to 0.3-0.4 cm.
as §1, with “4 weeks. In table 16 below the immune group was immuned with D121 lung tumor cells and the group without dead D121 lung tumor cells was injected with physiological saline as controls.” for “4 weeks.”
3) Production of tumor. After immunization (4 weeks later), 10^6 live lung tumor cells were subcutaneously injected to the back of the C57 mice immunized by tumor. Treatment began when the tumor grew to 0.3-0.4 cm. Tumor size (mm^3) were noted and tumor inhibition rates were calculated.
as §1, with “4 weeks. In the table below the immune group was immuned with D121 lung tumor cells and the group without dead D121 lung tumor cells was injected with physiological saline as controls.” for “4 weeks.”
3) Production of tumor. At day 32, 10^6 live D121 lung tumor cells were subcutaneously injected to the back of the C57 mice immunized by tumor. Treatment began when the tumor grew to 0.3-0.4 cm.
1) D121 lung tumor cells were purposed from ATCC. Cells were cultivated in DMEM culture solution containing 10% fetal bovine serum at 37° C. and 5% CO2. The cells were passaged for every three days and cells within the 15th passage were used.

tumor CD8+ T cells = format: in vivo, C57 mice; details: D121 immunized C57 mice, 13.2 μmol/kg; ratio of CD8 positive cells in CD45 positive cells of tumor
Method: (§2) 4) Analysis on tumor CD8+ T cells. The tumor tissue was homogenated and individual cells in the tumor were filtered, separated and washed by buffer twice, then cultivated with the leucocyte common antigen CD45-PE and CD8-FITC marked antibodies for 1 hour at ambient temperature. The cells were washed by phosphate buffer containing 1% fetal bovine serum twice and then analyzed for the ratio of the T lymphocyte antigen (CD8) positive cells in the leucocyte common antigen (CD45) positive cells by flow cytometry.
as §2, with “CD45-PE and T-lymphocyte antigen CD8-FITC marked” for “CD45-PE and CD8-FITC marked”, “flow cytometry. Increasement of the ratio indicates increased T lymphocyte cells and thus the animal immunity against the tumor was improved.” for “flow cytometry.”
as §2, with “cytometry. Increasement of the ratio indicates increased T lymphocyte cells and thus the animal immunity against the tumor was improved.” for “cytometry.”

[1] = tested on: Human breast cancer MDA-MB231 cells; format: in vivo, nude mice; details: MDA-MB231, nude mice, IV 13.2 μmol/kg once weekly for four weeks
Method: 1) Human breast cancer MDA-MB231 cells were purchased from American type culture collection (ATCC) and identified according the specification provided by ATCC. Cells were cultivated in […] (DMEM culture medium) containing 10% fetal bovine serum at 37° C. and 5% CO2. The cells were passaged for every three days and cells within the 15th passage were used.
2) Production of tumor. 5×10^6 MDA-MB231 cells were subcutaneously injected to the back of the nude mice. Mice were randomly grouped after the tumor reached at least 100 mm^3. Then treatment began and the day on which the treatment began was day 1.
3) Course of treatment. […] The drugs were administered once weekly for four weeks.
When R1 is 2-(2-Methoxyethoxy)Acetyl, and R3 is Ala, activation study and efficacy study were carried out by using compounds having different cleavable linker. The study methods are identical to those in Examples 10, 11 and 12. The in vitro activation efficiency was tested by asparagine endopeptidase and the tumor inhibition rate was tested by using human breast cancer MDA-MB231 model. […]

Row | SMILES | Inhibitory rate on tumor Day 18 (D121 lung tumor cells) | Size of tumor (mm^3) Day 18 (D121 lung tumor cells) [mm^3] | CD8: CD45 (%) (tumor CD8+ T cells) | Inhibitory rate on tumor (%) Day 10 [1] [%] | Size of tumor (mm^3) Day 10 [1] [mm^3] | Inhibitory rate on tumor (%) Day 24 [1] [%] | Size of tumor (mm^3) Day 24 [1] [mm^3] | CD8: D45 (%) (tumor CD8+ T cells)
1 | CC[C@@]1(O)C(=O)OCc2c1cc1n(c2=O)Cc2cc3ccccc3nc2-1 [camptothecin] | 34.47 | 889.56 ± 148.56 | 13.2 | 15 | 258.45 ± 57.43 | 19 | 847.46 ± 157.56 | –
2 | CCCCCOC(=O)Nc1nc(=O)n([C@@H]2O[C@H](C)[C@@H](O)[C@H]2O)cc1F [capecitabine] | 29.75 | 953.65 ± 245.43 | – | 26 | 225.53 ± 74.45 | 9 | 946.43 ± 275.86 | 13.6
3 | COc1cccc2c1C(=O)c1c(O)c3c(c(O)c1C2=O)C[C@@](O)(C(C)=O)C[C@@H]3O[C@H]1C[C@H](N)[C@H](O)[C@H](C)O1 [daunorubicin] | 21.63 | 1063.86 ± 317.56 | – | 43 | 174.78 ± 78.43 | 17 | 864.01 ± 67.45 | 13.2
